Results from article PMC3639963, “A New Class of Small Molecule Inhibitor of BMP Signaling” (PLoS ONE, 2013).
Entries after “also recorded” stand apart in the source; their conditions may differ. One block for each compound: values may come before it.

Experiments:
SRPK2 = biological target: T1, SRPK2 (Homo sapiens, UniProt P78362); test: DSF thermal shift; assay type: binding; settings: 10 µM inhibitor; read-out: Tm shift
T1 construct: purchased Nanosyn (enzymatic panel); SGC in-house recombinant human kinases (DSF panel); Invitrogen (ALK1-6)
Method in brief: (§1)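 Protein unfolding is read on a real-time PCR instrument. The assay uses 1–2 µM recombinant human kinase with test compound at 10 µM.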

ALK6 = biological target: T2, ALK6 (Homo sapiens, UniProt O00238); test: DSF thermal shift; assay type: binding; settings: 10 µM inhibitor; read-out: Tm shift
T2 construct: purchased Nanosyn (enzymatic panel); SGC in-house recombinant human kinases (DSF panel); Invitrogen (ALK1-6)
Method in brief: as §1

ERK1 = biological target: T3, ERK1 (Homo sapiens, UniProt P27361); test: DSF thermal shift; assay type: binding; settings: 10 µM inhibitor; read-out: Tm shift
T3 construct: purchased Nanosyn (enzymatic panel); SGC in-house recombinant human kinases (DSF panel); Invitrogen (ALK1-6)
Method in brief: as §1

VRK1 = biological target: T4, VRK1 (Homo sapiens, UniProt Q99986); test: DSF thermal shift; assay type: binding; settings: 10 µM inhibitor; read-out: Tm shift
T4 construct: purchased Nanosyn (enzymatic panel); SGC in-house recombinant human kinases (DSF panel); Invitrogen (ALK1-6)
Method in brief: as §1

PCTAIRE1 = biological target: T5, PCTAIRE1 (Homo sapiens, UniProt Q00536); test: DSF thermal shift; assay type: binding; settings: 10 µM inhibitor; read-out: Tm shift
T5 construct: purchased Nanosyn (enzymatic panel); SGC in-house recombinant human kinases (DSF panel); Invitrogen (ALK1-6)
Method in brief: as §1

ALK5 = biological target: T6, ALK5 (Homo sapiens, UniProt P36897); test: DSF thermal shift; assay type: binding; settings: 10 µM inhibitor; read-out: Tm shift
T6 construct: purchased Nanosyn (enzymatic panel); SGC in-house recombinant human kinases (DSF panel); Invitrogen (ALK1-6)
Method in brief: as §1

TNIK = biological target: T7, TNIK (Homo sapiens, UniProt Q9UKE5); test: DSF thermal shift; assay type: binding; settings: 10 µM inhibitor; read-out: Tm shift
T7 construct: purchased Nanosyn (enzymatic panel); SGC in-house recombinant human kinases (DSF panel); Invitrogen (ALK1-6)
Method in brief: as §1

DYRK1A = biological target: T8, DYRK1A (Homo sapiens, UniProt Q13627); test: DSF thermal shift; assay type: binding; settings: 10 µM inhibitor; read-out: Tm shift
T8 construct: purchased Nanosyn (enzymatic panel); SGC in-house recombinant human kinases (DSF panel); Invitrogen (ALK1-6)
Method in brief: as §1

GRK3 = biological target: T9, GRK3 (Homo sapiens, UniProt P35626); test: DSF thermal shift; assay type: binding; settings: 10 µM inhibitor; read-out: Tm shift
T9 construct: purchased Nanosyn (enzymatic panel); SGC in-house recombinant human kinases (DSF panel); Invitrogen (ALK1-6)
Method in brief: as §1

CK1γ1 = biological target: T10, CK1γ1 (Homo sapiens, UniProt Q9HCP0); test: DSF thermal shift; assay type: binding; settings: 10 µM inhibitor; read-out: Tm shift
T10 construct: purchased Nanosyn (enzymatic panel); SGC in-house recombinant human kinases (DSF panel); Invitrogen (ALK1-6)
Method in brief: as §1

PRKX = biological target: T11, PRKX (Homo sapiens, UniProt P51817); test: DSF thermal shift; assay type: binding; settings: 10 µM inhibitor; read-out: Tm shift
T11 construct: purchased Nanosyn (enzymatic panel); SGC in-house recombinant human kinases (DSF panel); Invitrogen (ALK1-6)
T11 sequence (P51817 1-358): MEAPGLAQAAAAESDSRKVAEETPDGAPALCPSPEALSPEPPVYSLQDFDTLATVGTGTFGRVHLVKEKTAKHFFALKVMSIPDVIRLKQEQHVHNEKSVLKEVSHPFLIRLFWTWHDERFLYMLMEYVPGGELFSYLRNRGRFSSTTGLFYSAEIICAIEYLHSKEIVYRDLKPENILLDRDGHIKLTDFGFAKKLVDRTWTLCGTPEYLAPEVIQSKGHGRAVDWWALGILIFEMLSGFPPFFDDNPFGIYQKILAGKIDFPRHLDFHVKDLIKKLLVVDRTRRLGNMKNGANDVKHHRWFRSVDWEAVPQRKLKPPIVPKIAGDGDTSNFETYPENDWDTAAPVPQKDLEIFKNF
Method in brief: as §1

GAK = biological target: T12, GAK (Homo sapiens, UniProt O14976); test: DSF thermal shift; assay type: binding; settings: 10 µM inhibitor; read-out: Tm shift
T12 construct: purchased Nanosyn (enzymatic panel); SGC in-house recombinant human kinases (DSF panel); Invitrogen (ALK1-6)
Method in brief: as §1

CDKL1 = biological target: T13, CDKL1 (Homo sapiens, UniProt Q00532); test: DSF thermal shift; assay type: binding; settings: 10 µM inhibitor; read-out: Tm shift
T13 construct: purchased Nanosyn (enzymatic panel); SGC in-house recombinant human kinases (DSF panel); Invitrogen (ALK1-6)
Method in brief: as §1

MYLK4 = biological target: T14, MYLK4 (Homo sapiens, UniProt Q86YV6); test: DSF thermal shift; assay type: binding; settings: 10 µM inhibitor; read-out: Tm shift
T14 construct: purchased Nanosyn (enzymatic panel); SGC in-house recombinant human kinases (DSF panel); Invitrogen (ALK1-6)
Method in brief: as §1

CDK8 = biological target: T15, CDK8 (Homo sapiens, UniProt P49336); test: DSF thermal shift; assay type: binding; settings: 10 µM inhibitor; read-out: Tm shift
T15 construct: purchased Nanosyn (enzymatic panel); SGC in-house recombinant human kinases (DSF panel); Invitrogen (ALK1-6)
Method in brief: as §1

p38β = biological target: T16, p38β (Homo sapiens, UniProt Q15759); test: DSF thermal shift; assay type: binding; settings: 10 µM inhibitor; read-out: Tm shift
T16 construct: purchased Nanosyn (enzymatic panel); SGC in-house recombinant human kinases (DSF panel); Invitrogen (ALK1-6)
Method in brief: as §1

DRAK1 = biological target: T17, DRAK1 (Homo sapiens, UniProt Q9UEE5); test: DSF thermal shift; assay type: binding; settings: 10 µM inhibitor; read-out: Tm shift
T17 construct: purchased Nanosyn (enzymatic panel); SGC in-house recombinant human kinases (DSF panel); Invitrogen (ALK1-6)
Method in brief: as §1

BRK = biological target: T18, BRK (Homo sapiens, UniProt Q13882); test: DSF thermal shift; assay type: binding; settings: 10 µM inhibitor; read-out: Tm shift
T18 construct: purchased Nanosyn (enzymatic panel); SGC in-house recombinant human kinases (DSF panel); Invitrogen (ALK1-6)
Method in brief: as §1

BMPRII = biological target: T19, BMPRII (Homo sapiens, UniProt Q13873); test: DSF thermal shift; assay type: binding; settings: 10 µM inhibitor; read-out: Tm shift
T19 construct: purchased Nanosyn (enzymatic panel); SGC in-house recombinant human kinases (DSF panel); Invitrogen (ALK1-6)
Method in brief: as §1

CAMK1δ = biological target: T20, CAMK1δ (Homo sapiens, UniProt Q8IU85); test: DSF thermal shift; assay type: binding; settings: 10 µM inhibitor; read-out: Tm shift
T20 construct: purchased Nanosyn (enzymatic panel); SGC in-house recombinant human kinases (DSF panel); Invitrogen (ALK1-6)
Method in brief: as §1

DCAMKL1 = biological target: T21, DCAMKL1 (Homo sapiens, UniProt O15075); test: DSF thermal shift; assay type: binding; settings: 10 µM inhibitor; read-out: Tm shift
T21 construct: purchased Nanosyn (enzymatic panel); SGC in-house recombinant human kinases (DSF panel); Invitrogen (ALK1-6)
Method in brief: as §1

CK2α1 = biological target: T22, CK2α1 (Homo sapiens, UniProt P68400); test: DSF thermal shift; assay type: binding; settings: 10 µM inhibitor; read-out: Tm shift
T22 construct: purchased Nanosyn (enzymatic panel); SGC in-house recombinant human kinases (DSF panel); Invitrogen (ALK1-6)
Method in brief: as §1

STK33 = biological target: T23, STK33 (Homo sapiens, UniProt Q9BYT3); test: DSF thermal shift; assay type: binding; settings: 10 µM inhibitor; read-out: Tm shift
T23 construct: purchased Nanosyn (enzymatic panel); SGC in-house recombinant human kinases (DSF panel); Invitrogen (ALK1-6)
Method in brief: as §1

ZAK = biological target: T24, ZAK (Homo sapiens, UniProt Q9NYL2); test: DSF thermal shift; assay type: binding; settings: 10 µM inhibitor; read-out: Tm shift
T24 construct: purchased Nanosyn (enzymatic panel); SGC in-house recombinant human kinases (DSF panel); Invitrogen (ALK1-6)
Method in brief: as §1

DAPK3 = biological target: T25, DAPK3 (Homo sapiens, UniProt O43293); test: DSF thermal shift; assay type: binding; settings: 10 µM inhibitor; read-out: Tm shift
T25 construct: purchased Nanosyn (enzymatic panel); SGC in-house recombinant human kinases (DSF panel); Invitrogen (ALK1-6)
Method in brief: as §1

NDR1 = biological target: T26, NDR1 (Homo sapiens, UniProt Q15208); test: DSF thermal shift; assay type: binding; settings: 10 µM inhibitor; read-out: Tm shift
T26 construct: purchased Nanosyn (enzymatic panel); SGC in-house recombinant human kinases (DSF panel); Invitrogen (ALK1-6)
Method in brief: as §1

CLK4 = biological target: T27, CLK4 (Homo sapiens, UniProt Q9HAZ1); test: DSF thermal shift; assay type: binding; settings: 10 µM inhibitor; read-out: Tm shift
T27 construct: purchased Nanosyn (enzymatic panel); SGC in-house recombinant human kinases (DSF panel); Invitrogen (ALK1-6)
Method in brief: as §1

[1] = tested on: Tg(fli1a:eGFP) zebrafish embryos; test: Intersomitic vessel (ISV) formation in zebrafish embryos; assay type: in vivo; settings: treated from 12 hpf, scored at 48 hpf
Method: The zebrafish colony was maintained as described and embryos were raised at 28.5°C. The Tg(BRE:mRFP) transgenic line (also called BRE-mRFP) has been described previously and expresses mRFP in response to BMP signaling. […] Inhibitor stocks were diluted in DMSO and then further diluted in fish water to give the required inhibitor concentrations. To minimize the amount of inhibitors used, experiments were performed in 24-well plates with approximately 20 embryos per well in a volume of 1 mL. The chemical treatment was applied by immersing 8- to 16-cell stage Tg(BRE:mRFP) embryos (dorsalization experiment) or 12 hours old […]) embryos (ISV experiment) in the fish water supplemented with DMSO or the chemical inhibitors. For the ISV experiment, embryos were manually dechorionated after bud stage before treatment. Embryos were scored and photographed at 26 or 48 hours.

GUCY2D = biological target: T28, GUCY2D (Homo sapiens, UniProt Q02846); test: DSF thermal shift; assay type: binding; settings: 10 µM inhibitor; read-out: Tm shift
T28 construct: purchased Nanosyn (enzymatic panel); SGC in-house recombinant human kinases (DSF panel); Invitrogen (ALK1-6)
Method in brief: as §1

T27 sequence (Q9HAZ1 whole entry): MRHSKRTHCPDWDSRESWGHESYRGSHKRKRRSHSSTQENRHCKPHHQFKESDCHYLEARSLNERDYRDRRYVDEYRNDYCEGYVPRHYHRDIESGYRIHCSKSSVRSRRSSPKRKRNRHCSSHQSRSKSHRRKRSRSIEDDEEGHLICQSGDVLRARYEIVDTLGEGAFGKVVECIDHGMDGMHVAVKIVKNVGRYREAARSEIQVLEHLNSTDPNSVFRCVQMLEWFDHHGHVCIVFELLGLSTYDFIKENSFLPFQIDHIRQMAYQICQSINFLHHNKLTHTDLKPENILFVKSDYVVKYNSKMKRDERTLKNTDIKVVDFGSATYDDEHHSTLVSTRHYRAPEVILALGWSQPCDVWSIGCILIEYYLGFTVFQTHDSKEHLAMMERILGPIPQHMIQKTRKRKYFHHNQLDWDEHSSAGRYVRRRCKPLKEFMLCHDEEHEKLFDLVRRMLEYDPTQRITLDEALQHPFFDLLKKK
T3 sequence (P27361 whole entry): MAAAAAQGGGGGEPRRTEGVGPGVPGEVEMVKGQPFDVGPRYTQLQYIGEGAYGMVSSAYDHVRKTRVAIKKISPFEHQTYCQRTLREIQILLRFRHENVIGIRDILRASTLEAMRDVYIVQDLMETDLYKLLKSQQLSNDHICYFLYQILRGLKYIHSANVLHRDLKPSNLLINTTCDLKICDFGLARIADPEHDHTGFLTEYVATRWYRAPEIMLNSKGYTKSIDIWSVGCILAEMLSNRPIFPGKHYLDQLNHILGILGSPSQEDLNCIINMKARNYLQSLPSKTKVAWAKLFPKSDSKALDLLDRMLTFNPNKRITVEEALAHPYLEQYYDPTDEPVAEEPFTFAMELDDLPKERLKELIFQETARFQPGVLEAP
T10 sequence (Q9HCP0 whole entry): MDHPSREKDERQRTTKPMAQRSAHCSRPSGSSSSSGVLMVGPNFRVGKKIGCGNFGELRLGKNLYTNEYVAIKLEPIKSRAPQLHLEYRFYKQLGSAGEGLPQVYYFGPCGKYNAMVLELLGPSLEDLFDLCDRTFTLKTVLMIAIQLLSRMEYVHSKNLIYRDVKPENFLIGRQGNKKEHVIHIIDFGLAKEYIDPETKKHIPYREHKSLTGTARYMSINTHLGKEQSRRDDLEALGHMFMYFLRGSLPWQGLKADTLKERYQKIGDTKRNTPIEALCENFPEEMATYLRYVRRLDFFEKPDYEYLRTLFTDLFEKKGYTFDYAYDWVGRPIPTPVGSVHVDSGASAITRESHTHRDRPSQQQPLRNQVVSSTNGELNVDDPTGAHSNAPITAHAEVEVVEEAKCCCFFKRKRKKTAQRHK
T20 sequence (Q8IU85 whole entry): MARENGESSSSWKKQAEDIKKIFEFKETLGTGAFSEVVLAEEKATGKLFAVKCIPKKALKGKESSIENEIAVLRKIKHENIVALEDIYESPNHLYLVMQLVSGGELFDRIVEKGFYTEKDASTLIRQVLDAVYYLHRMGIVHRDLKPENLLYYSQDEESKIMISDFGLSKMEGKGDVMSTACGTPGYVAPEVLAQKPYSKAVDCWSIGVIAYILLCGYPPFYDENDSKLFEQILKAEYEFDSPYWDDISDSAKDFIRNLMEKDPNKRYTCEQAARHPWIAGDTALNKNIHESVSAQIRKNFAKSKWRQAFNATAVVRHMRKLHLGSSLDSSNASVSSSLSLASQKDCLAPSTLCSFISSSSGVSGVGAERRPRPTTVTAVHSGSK
T7 sequence (Q9UKE5 whole entry): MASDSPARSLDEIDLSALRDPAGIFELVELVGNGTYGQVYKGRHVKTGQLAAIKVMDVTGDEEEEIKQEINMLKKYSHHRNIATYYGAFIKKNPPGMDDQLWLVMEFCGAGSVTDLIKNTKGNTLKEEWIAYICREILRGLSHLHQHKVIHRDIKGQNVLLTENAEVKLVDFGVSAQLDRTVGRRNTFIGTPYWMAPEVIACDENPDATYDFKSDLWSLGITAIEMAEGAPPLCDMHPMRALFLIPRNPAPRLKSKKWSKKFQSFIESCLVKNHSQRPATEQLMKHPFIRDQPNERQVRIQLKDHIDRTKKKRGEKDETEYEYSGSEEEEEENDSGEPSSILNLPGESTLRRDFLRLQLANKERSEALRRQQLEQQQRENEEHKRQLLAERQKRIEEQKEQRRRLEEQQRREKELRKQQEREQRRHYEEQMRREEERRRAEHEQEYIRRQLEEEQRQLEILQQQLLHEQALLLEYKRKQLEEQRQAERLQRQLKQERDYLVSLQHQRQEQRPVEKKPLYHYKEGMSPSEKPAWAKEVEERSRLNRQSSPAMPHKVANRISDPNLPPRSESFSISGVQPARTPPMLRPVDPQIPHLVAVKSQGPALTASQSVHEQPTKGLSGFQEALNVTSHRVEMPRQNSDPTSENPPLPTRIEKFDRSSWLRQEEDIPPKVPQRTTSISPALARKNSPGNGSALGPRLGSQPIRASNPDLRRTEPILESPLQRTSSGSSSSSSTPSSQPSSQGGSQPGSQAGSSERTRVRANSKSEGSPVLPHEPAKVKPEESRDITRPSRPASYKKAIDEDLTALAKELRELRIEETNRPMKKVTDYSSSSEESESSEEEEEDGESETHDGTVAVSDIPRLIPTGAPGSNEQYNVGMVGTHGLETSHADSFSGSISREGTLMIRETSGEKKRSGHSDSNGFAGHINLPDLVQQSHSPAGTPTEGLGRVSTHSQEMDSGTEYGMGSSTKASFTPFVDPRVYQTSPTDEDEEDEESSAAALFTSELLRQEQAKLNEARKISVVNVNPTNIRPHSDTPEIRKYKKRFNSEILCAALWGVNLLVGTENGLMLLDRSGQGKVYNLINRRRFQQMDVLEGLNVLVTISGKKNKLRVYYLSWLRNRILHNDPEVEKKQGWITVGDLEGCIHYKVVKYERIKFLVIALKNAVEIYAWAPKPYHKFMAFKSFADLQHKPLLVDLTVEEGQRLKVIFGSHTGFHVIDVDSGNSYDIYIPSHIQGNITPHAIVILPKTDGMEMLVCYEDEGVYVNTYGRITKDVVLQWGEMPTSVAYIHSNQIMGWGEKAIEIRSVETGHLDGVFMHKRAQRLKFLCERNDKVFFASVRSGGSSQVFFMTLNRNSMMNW
T21 sequence (O15075 whole entry): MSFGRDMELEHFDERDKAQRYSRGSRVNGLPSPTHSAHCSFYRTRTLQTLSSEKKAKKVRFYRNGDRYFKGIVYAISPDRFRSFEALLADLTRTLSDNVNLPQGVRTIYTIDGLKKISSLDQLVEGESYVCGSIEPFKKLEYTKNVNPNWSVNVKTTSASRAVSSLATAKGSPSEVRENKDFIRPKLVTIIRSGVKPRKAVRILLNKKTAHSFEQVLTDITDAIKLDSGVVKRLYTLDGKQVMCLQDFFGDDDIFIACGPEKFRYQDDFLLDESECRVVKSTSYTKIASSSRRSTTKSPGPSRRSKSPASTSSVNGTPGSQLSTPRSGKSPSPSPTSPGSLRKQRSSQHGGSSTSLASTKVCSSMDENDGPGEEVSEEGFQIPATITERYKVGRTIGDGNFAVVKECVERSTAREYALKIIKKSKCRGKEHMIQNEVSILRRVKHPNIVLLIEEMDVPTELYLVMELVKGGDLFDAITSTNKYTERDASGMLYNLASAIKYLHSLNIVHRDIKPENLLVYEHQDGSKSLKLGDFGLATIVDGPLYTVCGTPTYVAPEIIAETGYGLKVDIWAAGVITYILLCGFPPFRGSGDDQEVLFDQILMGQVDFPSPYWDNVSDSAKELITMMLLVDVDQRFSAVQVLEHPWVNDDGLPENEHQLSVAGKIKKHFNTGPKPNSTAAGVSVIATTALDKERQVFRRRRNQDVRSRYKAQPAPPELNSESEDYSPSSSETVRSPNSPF
T22 sequence (P68400 whole entry): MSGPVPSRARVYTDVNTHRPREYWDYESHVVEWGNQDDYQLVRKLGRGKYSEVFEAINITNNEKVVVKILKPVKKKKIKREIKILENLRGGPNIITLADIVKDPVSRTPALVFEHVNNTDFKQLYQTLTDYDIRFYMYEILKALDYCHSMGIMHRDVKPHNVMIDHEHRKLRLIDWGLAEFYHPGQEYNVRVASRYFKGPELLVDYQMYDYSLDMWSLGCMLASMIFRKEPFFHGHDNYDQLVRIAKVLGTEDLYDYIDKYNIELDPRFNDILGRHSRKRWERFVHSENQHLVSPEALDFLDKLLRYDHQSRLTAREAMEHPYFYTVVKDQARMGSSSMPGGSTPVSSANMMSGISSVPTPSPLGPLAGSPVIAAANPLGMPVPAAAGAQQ
T14 sequence (Q86YV6 whole entry): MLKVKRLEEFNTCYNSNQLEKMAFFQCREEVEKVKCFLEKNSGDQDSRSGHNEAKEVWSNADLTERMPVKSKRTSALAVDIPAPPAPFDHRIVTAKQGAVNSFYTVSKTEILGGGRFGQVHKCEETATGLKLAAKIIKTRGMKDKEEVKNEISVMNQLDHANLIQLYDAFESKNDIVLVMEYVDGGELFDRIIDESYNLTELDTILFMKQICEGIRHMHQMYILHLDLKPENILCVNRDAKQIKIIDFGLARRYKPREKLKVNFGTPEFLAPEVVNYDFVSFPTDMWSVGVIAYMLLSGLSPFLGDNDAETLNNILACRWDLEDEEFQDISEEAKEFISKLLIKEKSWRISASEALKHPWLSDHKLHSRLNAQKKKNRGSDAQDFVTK
T6 sequence (P36897 34-503): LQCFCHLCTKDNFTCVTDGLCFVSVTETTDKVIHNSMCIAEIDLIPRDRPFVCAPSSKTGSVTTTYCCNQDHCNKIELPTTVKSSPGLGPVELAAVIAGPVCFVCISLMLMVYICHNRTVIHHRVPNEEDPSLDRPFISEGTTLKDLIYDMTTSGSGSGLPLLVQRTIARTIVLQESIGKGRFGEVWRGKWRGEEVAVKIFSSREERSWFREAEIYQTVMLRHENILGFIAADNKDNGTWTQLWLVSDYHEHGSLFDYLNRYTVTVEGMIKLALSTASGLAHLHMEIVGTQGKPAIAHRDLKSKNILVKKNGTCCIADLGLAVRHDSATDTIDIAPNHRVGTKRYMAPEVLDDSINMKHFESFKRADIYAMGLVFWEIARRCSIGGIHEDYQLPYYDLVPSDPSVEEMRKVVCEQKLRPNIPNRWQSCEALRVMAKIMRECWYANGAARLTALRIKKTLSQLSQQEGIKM

ΔTm at 10 µM (SRPK2): 0.2 °C
ΔTm at 10 µM (ALK6): 13.9 °C
ΔTm at 10 µM (ERK1): 0.2 °C
ΔTm at 10 µM (VRK1): 0.5 °C
ΔTm at 10 µM (PCTAIRE1): -1.8 °C
ΔTm at 10 µM (ALK5): 11.6 °C
ΔTm at 10 µM (TNIK): 6.1 °C
ΔTm at 10 µM (DYRK1A): -0.9 °C
ΔTm at 10 µM (GRK3): 0.1 °C
ΔTm at 10 µM (CK1γ1): 0.7 °C
ΔTm at 10 µM (PRKX): 0.2 °C
ΔTm at 10 µM (GAK): 6.9 °C
ΔTm at 10 µM (CDKL1): 0 °C
ΔTm at 10 µM (MYLK4): 1 °C
ΔTm at 10 µM (CDK8): 0.1 °C
ΔTm at 10 µM (p38β): 0.5 °C
ΔTm at 10 µM (DRAK1): 1 °C
ΔTm at 10 µM (BRK): 0 °C
ΔTm at 10 µM (BMPRII): 3.5 °C
ΔTm at 10 µM (CAMK1δ): -0.3 °C
ΔTm at 10 µM (DCAMKL1): 0.1 °C
ΔTm at 10 µM (CK2α1): 0.3 °C
ΔTm at 10 µM (STK33): 1.1 °C
ΔTm at 10 µM (ZAK): -0.1 °C
ΔTm at 10 µM (DAPK3): 0.2 °C
ΔTm at 10 µM (NDR1): 0.1 °C
ΔTm at 10 µM (CLK4): 0.3 °C
ISV formation phenotype ([1]; 10 µM): no phenotype
ISV formation phenotype ([1]; 10–20 µM): no ISV defects
Structure (SMILES): COc1cc(-c2cc(-c3cccc(O)c3)cnc2N)cc(OC)c1OC [K02288, 3-[6-amino-5-(3,4,5-trimethoxy-phenyl)-pyridin-3-yl]-phenol]

Structure (SMILES): c1ccc2c(-c3cnn4cc(-c5ccc(N6CCNCC6)cc5)cnc34)ccnc2c1 [LDN-193189]
ΔTm at 10 µM (GUCY2D): -0.2 °C
ΔTm at 10 µM (ERK1): 0.2 °C
ΔTm at 10 µM (CK1γ1): 0.3 °C
ΔTm at 10 µM (CLK4): 5.3 °C
ISV formation phenotype ([1]; 10 µM): defects in intersomitic vessel (ISV) formation; also recorded: weak ISV defects
